For test [1], the system named is goblet cell metaplasia in mice lungs. Kind of test: RWE-induced goblet cell metaplasia in mice lungs (PAS stain). To be noted: RWE-sensitized and challenged mice, fidarestat 7 mg/kg body wt/day in drinking water, 72 h after challenge. It counts as in vivo. How it is done:
FIGS. 10A-10B. Inhibition or deficiency of AR prevents RWE-induced goblet cell metaplasia in mice lungs. RWE-sensitized normal and AR-null mice were challenged with RWE and 72 h later the lungs were harvested from mice treated without or with AR inhibitor (A) or AR-null mice (B), perfused and fixed with 4% paraformaldehyde and embedded in paraffin. The sections were stained with PAS stain and observed under light microscope and photomicrographs were acquired. A representative photomicrograph from each group is shown (n=4). Magnification 200× (A); 400× (B).
Wild type C57BL/6 and Balb/cJ mice were purchased from Harlan Sprague-Dawley (San Diego, Calif., USA) and AR null mice on C57BL/6 background were bread by us at Animal resource center, UTMB, Galveston, Tex. Six-eight weeks old female mice were sensitized with RWE as previously described (Hwang et al., FASEB J. 19: 795-797, 2005). Briefly, mice were sensitized with two intraperitoneal administrations of 100 μl of endotoxin-free RWE (150 μg) combined with Alum adjuvant (1 mg) in a 3:1 ratio (v/v), on days 0 and 4. On day 11, mice (n=6) were challenged intranasally with RWE (100 μg). A parallel group of mice received fidarestat (7 mg/kg body wt/day) in drinking water from one day before the challenge. Control groups of mice were challenged with equivalent volumes of PBS. […]

The next test relates to Muc5AC. The test can be described thus: Western blot of Muc5AC in IL-13-treated SAEC monolayer. To be noted: IL-13 48 h, immunoblotting. Format: cell-based, human. The procedure:
FIGS. 6A-6B. AR inhibition prevents IL-13-induced expression of Mucin and transcription factor SPDEF in airway epithelial cell monolayer. (A) The airway epithelial cell monolayer at ALI was serum starved without or with fidarestat and incubated with IL-13 for 18 h. Total RNA was isolated and subsequently RT-PCR was performed to assess the expression of Muc5AC and SPDEF. The bar diagrams show densitometric analysis of the corresponding blots (n=4). *p<0.001 vs Control; **p<0.001 vs IL-13; (B) The monolayer of ciliated airway cells at ALI was treated with AR inhibitor for 24 h and subsequently incubated with IL-13 for 24 or 48 h. At the end of incubation, cell lysate was prepared and subjected to western blotting using antibodies against Muc5AC, Muc5B, and SPDEF. The membranes were stripped and re-probed with antibodies against GAPDH to show the equal loading of protein. A representative blot is shown (n=4). *p<0.0001 vs Control; **p<0.001 vs IL-13. […] Protein levels were determined using Bradford reagent (Biorad, Hercules, Calif.). […] The blots were then washed, exposed to HRP-conjugated secondary antibodies (1:5,000 dilution) for 1 h, and the antigen-antibody complex was detected by enhanced chemiluminescence (Amersham Pharmacia Biotech, Piscataway, N.J., USA). […]

Data on 1 compound can be found in patent publication US8785483B2, “Methods for treating COPD” (The Board of Regents of the University of Texas System, priority 2010, dated 2014).

`NC(=O)[C@@H]1C[C@]2(NC(=O)NC2=O)c2cc(F)ccc2O1` [fidarestat, (2S,4S)-2-aminoformyl-6-fluoro-spiro[chroman-4,4′-imidazolidine]-2′,5′-dione]: the “PAS positive cells in the airway” value in test [1] is recorded as “absent”. Besides, the “prevention of IL-13-induced increase in Muc5AC protein” value in the test on Muc5AC is listed as about 75%.
